Experiments:
[1] = test system: atherogenic diet-fed obese diabetic (Alms1 mutant (foz/foz)) mice; conditions: cited from earlier work
PPARα = target: T1, PPARα (Homo sapiens, UniProt Q07869); conditions: cited from earlier work
T1 sequence (Q07869 1-468): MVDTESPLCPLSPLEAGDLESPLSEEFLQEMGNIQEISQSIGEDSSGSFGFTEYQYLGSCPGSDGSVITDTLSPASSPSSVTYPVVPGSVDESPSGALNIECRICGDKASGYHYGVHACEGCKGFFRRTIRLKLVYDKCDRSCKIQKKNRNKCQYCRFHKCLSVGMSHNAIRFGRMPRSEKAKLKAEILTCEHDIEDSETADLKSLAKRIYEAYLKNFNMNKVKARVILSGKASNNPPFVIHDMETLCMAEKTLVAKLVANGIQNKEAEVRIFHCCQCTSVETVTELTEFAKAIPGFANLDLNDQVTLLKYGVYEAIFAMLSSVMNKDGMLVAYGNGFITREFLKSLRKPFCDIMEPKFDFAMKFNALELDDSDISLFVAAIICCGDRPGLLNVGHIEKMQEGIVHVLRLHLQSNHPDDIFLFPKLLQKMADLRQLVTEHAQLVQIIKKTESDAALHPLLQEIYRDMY

[2] = test system: Subjects with diagnosed irritable bowel syndrome (IBS); test: Clinical (oral) treatment of irritable bowel syndrome; type: in vivo, human
Procedure: The subjects keep a health diary in which their symptoms of irritable bowel syndrome are recorded.

[3] = test system: male RAG2−/− mice on C57BL/6 background; test: Preclinical adoptive T-cell transfer colitis; type: in vivo; conditions: 10 mg/Kg/day in drinking water, day 14 to day 42
Text: The cell donor animals are male C57BL/6 mice and the recipient animals are male RAG2^−/− mice on C57BL/6 background, aged 6-8 weeks at the start of the study. Recipient animals (20 +12 per test compound) are assigned: 5 to form a control group receiving no cell transfer or treatment, and the remainder to receive cell transfer. At day 0, the donor animals are sacrificed and spleens excised, dissociated to a single cell suspension, and the red blood cells lysed. The cell suspension is enriched for CD4+ T cells using a Miltenyi CD4+ T cell isolation kit, then further enriched for naïve CD4+ T cells using a Miltenyi naïve CD4+ T cell isolation kit. […] The animals are weighed daily and assessed visually for presence and severity of diarrhea and bloody stools, with video endoscopy on days 14, 28, and 42 to assess the severity of the colitis and score stool consistency. All animals are sacrificed at day 42 following endoscopy and samples collected: blood is collected and processed for plasma, the colon is excised, measured, rinsed, weighed, and trimmed to the most distal 5 cm, of this distal and proximal 2 cm portions are placed in formalin for histological evaluation, while the central 1 cm is snap-frozen in liquid nitrogen, and stored for analysis; and the liver is excised, weighed, snap-frozen in liquid nitrogen, and stored for analysis.

[4] = test system: wild-type female C57BL/6 mice; test: Preclinical Lieber-DeCarli ethanol diet mouse model (alcoholic liver disease / intestinal barrier function); type: in vivo
Text: Age-matched wild-type female C57BL/6 mice (Charles River, Wilmington, Mass.), 8-9 weeks old at the initiation of the study, were used.
The Lieber-DeCarli ethanol diet was originally developed by Charles Lieber and Leonore DeCarli in 1963. This diet allows for the prolonged exposure of ethanol in a rodent model and allows for modification to calories provided by ethanol. […] The caloric intake from ethanol was 0% on day 1, 10% on days 2 and 3, 20% on days 4 and 5, 30% from day 6 until the end of 6 weeks, and 36% for the last 2 weeks, for a total in-life time of eight weeks. The ethanol-fed mice also received one bolus dose of 33% v/v ethanol at 5 g/Kg on the last in-life day. The control diet contained an isocaloric substitution of isomaltose for the ethanol. […] In the prevention portions of the study, including with the control diet, seladelpar was added throughout the entire study period; in the intervention portion of the study, seladelpar was added only for the fifth through eighth weeks. Fresh feces were collected at 7.5 weeks. All mice were sacrificed after eight weeks; the ethanol-fed mice eight hours after the ethanol bolus. At sacrifice, body and liver weight were recorded; and blood/plasma, liver, gallbladder, small and large intestine (wall and contents) and cecum were harvested. Analyses included plasma ALT—to measure […]; hepatic TGs; plasma lipopolysaccharides (LPS)—to measure the extent of bacterial leakage from the intestine into the blood; fecal albumin (FA)—to measure the extent of albumin leakage from the blood into the intestine (feces); and total bile acids, measured by liquid chromatography-mass spectrometry (LC-MS) generally according to the method described in Hartmann et al., “Modulation of the Intestinal Bile Acid/Farnesoid X Receptor/Fibroblast Growth Factor 15 Axis Improves Alcoholic Liver Disease in Mice”, Hepatology, 67(6), 2150-2166 (2018).
The study results are given in the table below: standard errors of the means are in parentheses, n denotes the number of mice measured, and ANOVA denotes the significance value of an ANOVA analysis between groups 3, 4, and 5:
Formalin-fixed liver sections were stained for histological examination with hematoxylin and eosin (H+E).

[5] = alcohol diet, groups 4 and 5 vs untreated group 3, ANOVA

CCO[C@H](COc1ccc(C(F)(F)F)cc1)CSc1ccc(OCC(=O)O)c(C)c1 [seladelpar]
NASH pathology (hepatic steatosis, inflammation, fibrosis) [1]: improves NASH pathology | specificity for PPARδ compared with PPARα (PPARα): > 600 fold | IBS symptoms recorded in health diary ([2]; 2, 5, 10, 20, 50 or 100 mg/day oral for 12 weeks): general improvement in their IBS symptoms | improvement of disease (management of IBS, gastrointestinal symptoms) ([2]; 2-100 mg/day oral for 12 weeks): dose-related improvement in their disease | colitis (body weight, endoscopic and histologic examination) [3]: ameliorates the colitis | liver histology (H+E) ([4]; alcohol diet, prevention and intervention, comparing group 3 with groups 4 and 5): significant reduction of steatosis and restoration of a more normal architecture | serum ALT, change versus untreated ([4]; alcohol diet, groups 4 and 5 (prevention and intervention) vs untreated group 3, ANOVA): significant reductions (improvements) | fecal albumin, change versus untreated [4, 5]: significant reduction (improvement) | hepatic TGs, change versus untreated [4, 5]: significant reductions (improvements) | serum LPS, change versus untreated [4, 5]: significant reductions (improvements) | total bile acids, change versus untreated [4, 5]: significant reductions (improvements) | effect on ALT, hepatic TGs, plasma LPS, FA and total bile acids (any of the above parameters) ([4]; control diet groups, seladelpar prevention (group 2 vs group 1)): did not significantly affect | liver histology (H+E) ([4]; control diet, comparing groups 1 and 2): no significant change
